These results are taken from patent publication US11345725B2, “Bis-thioether stapled peptides as inhibitors of PRC2 function” (Research Foundation of the City University of New York, priority 2019, dated 2022).

Series [1] is described as follows: Plasma stability test. The conditions noted are these: human plasma, 37° C. The format is in vitro ADME. As for the experimental part:
1 mM stock solution of the corresponded peptide was prepared in PBS buffer (pH 7.4). Next, 50 μL from […] this solution were added to 1 mL of human plasma (Sigma-Aldrich, P9523). The mixture was incubated at 37° C. with mechanical shaking at 300 rpm. Aliquots were withdrawn in portions of 150 μL at different time points for analysis and mixed with 60 μL ACN/EtOH (1:1 v/v) for plasma protein precipitation. After centrifugation at 12000 rpm for 5 min, the supernatant was collected and analyzed by HPLC and HPLC-MS.

Series [2] concerns Caki-1 cells. The format is cell-based, human. As for the experimental part:
All of the cells were grown adherently.
Antiproliferative assays. […] For the following 72h, every 24 h the cell culture media was changed and fresh media containing the compounds was added, 1% DMSO was used as control. After 72h of treatment, both floating and attached cells were collected and analyzed.

Series [3] has as its system endogenous PRC2 extracted from a human clear cell renal carcinoma cell line (Caki-1). As to the kind of experiment: IC50 (uM). From the text: Table printed on a drawing sheet, FIG. 2A
Head of the field: IC50 (uM)
(§1) The patent's description of the figure: FIG. 2A depicts the results of biochemical assays showing structure of the synthesized stapled peptides, and their correspondent helicity and IC50 values for inhibition of H3K27 trimethylation in vitro, as determined by a histone methyltransferase colorimetric assay optimized using endogenous PRC2 extracted from a human clear cell renal carcinoma cell line (Caki-1);
(§2) FIG. 2B depicts a CD spectra of stapled peptides and their linear counterparts measured in water at 20° C.;
FIG. 2C illustrates a plot of H3K27 trimethylation inhibition using the enzymatic in vitro assay described in FIG. 2A, with varying concentrations of 2 (GN-ZB2), positive control GSK126, and using an equimolar combination of both compounds to test their synergistic effects. A summary of the IC50 values for inhibition of H3K27me3 determined from the experiments is also presented. Calculation of the combination index using the equation described by Chou et al. indicated a marked synergistic effect (CI=0.53) of 2 (GN-ZB2) and GSK126;
(§3) FIG. 2D show both Chymotrypsin-based proteolytic degradation as well as the plasma assay show remarkable stability of the disclosed i, i+4 and i, i+7 12 bisthioether stapled peptides. The rate of peptide proteolysis was monitored by HPLC and HPLC-MS analysis.
First copying reader's note: IC50 cells hold the value and its ± error together.
Where the first naming reader finds the target: description_of_the_figure: histone methyltransferase colorimetric assay optimized using endogenous PRC2 extracted from a human clear cell renal carcinoma cell line (Caki-1)

A short description of series [4]: FIG. 2D.
Text: Table printed on a drawing sheet, FIG. 2D
as §1, §2
FIG. 2C illustrates a plot of H3K27 trimethylation inhibition using the enzymatic in vitro assay described in FIG. 2A, with varying concentrations of 2 (GN-ZB2), positive control GSK126, and using an equimolar combination of both compounds to test their synergistic effects. A summary of the IC50 values for inhibition of H3K27me3 determined from the experiments is also presented. […]
as §3
First reader's note: The Assay column joins the peptide number (label) with the matrix (chymotrypsin or plasma, condition); units stand in the cells.

The nature of series [5]: FIG. 5A. Here is the method:
(§4) Table printed on a drawing sheet, FIG. 5A
(§5) FIG. 5C is a CD spectra of stapled peptides and their linear counterparts measured in water at 20° C.;
(§6) FIG. 5E is a plot of H3K27me3 inhibition obtained in an enzymatic assay using endogenous PRC2 extracted from Caki-1 cells and recombinant PRC2 complex (for compound 11);
First reader's note: Half-life units (min or h) stand in the cells; the compound structures are in the upper table of FIG. 5A.

The test system of series [6] is endogenous PRC2 extracted from a human clear cell renal carcinoma cell line (Caki-1). As to the kind of experiment: H3K27Me3 Inhibition (% at 1 mM). Here is the method: as §4
Head of the field: H3K27Me3 Inhibition (% at 1 mM)
as §5, §6
First copying reader's note: Half-life units (min or h) stand in the cells; the compound structures are in the upper table of FIG. 5A.
Where the first naming reader finds the target: passage: using as catalytic complex endogenous PRC2 extracted from a human clear cell renal carcinoma cell line (Caki-1)

The nature of series [7]: circular dichroism. Particulars: deionized water; pH unbuffered; 20 °C; 25 uM. (In general: Circular dichroism is widely used to follow secondary structure.)
The target of series [8] is T1, α-chymotrypsin from bovine pancreas type II (Bos taurus, UniProt P00766).
T1 construct: freshly prepared α-chymotrypsin from bovine pancreas type II, ≥40 U/mg; purchased; host or cells: bovine pancreas
Nature of the series: Chymotrypsin stability test. Format: in vitro ADME. As for the experimental part: Assays were performed using freshly prepared α-chymotrypsin from bovine pancreas type II, ≥40 U/mg. The enzyme was initially reconstituted in HCl […] (1 μg/μL), and kept in ice until used. Peptides stock solutions were prepared in assay buffer (50 mM Tris.HCl pH=8.0, 560 μM calcium chloride, 0.1% Tween-20) containing <3% of DMSO. The reactions were performed at a 200 μL scale, in assay buffer, at final concentrations of 50 μM for peptide and […] for α-chymotrypsin (10 μL from the reconstitution solution). The mixture was incubated at 37° C. and aliquots were withdrawn in portions of 25 μL at different time points for analysis. The removed aliquots were mixed with 25 μL of water 1% TFA, and then treated with a column for detergent removal following the manufacturer's protocol (Pierce, Catalog #:87776). The rate of peptide proteolysis was monitored by HPLC and HPLC-MS analysis. Control experiments were carried out under the same conditions but using BSA instead of α-chymotrypsin.

Where two headings read alike, the source gives them in different places. Starred links: 1 amine or outer side, 2 acyl side, 3 side chain; linkers in the order of their positions; H or OH if unused. Positions of bridges follow the written chain, without caps; N, C: chain ends. Residues, ends and D or L forms follow the SMILES beside them. X2 = C(CC[*:1])CC[*:2]; X1 = C(C[*:1])C[*:2]

Consider `CC[C@H](C)[C@@H]1NC(=O)[C@@H](NC(=O)[C@H](CC(=O)O)NC(=O)[C@@H](NC(=O)[C@@H](NC(C)=O)[C@@H](C)O)C(C)C)CSCCCSC[C@@H](C(=O)N[C@@H](CC(C)C)C(=O)N[C@@H](CO)C(=O)N[C@H](C(=O)N[C@@H](CC(C)C)C(=O)N[C@@H](C)C(=O)N[C@@H](CCC(=O)O)C(=O)N[C@@H](CCC(=O)O)C(=O)N[C@H](C(=O)N2CCC[C@H]2C(=O)N[C@@H](CCC(N)=O)C(=O)N[C@@H](CC(N)=O)C(N)=O)C(C)C)C(C)C)NC(=O)[C@H](CO)NC(=O)[C@H](C)NC1=O` [2 (GN-ZB2), TVD[CIASC](CH2)3LSVLAEEVPQN] (Ac-TVDCIASCLSVLAEEVPQN-NH2; linker 4-8 via X1; C-terminus assumed), for which the “stability in plasma” value in series [1] is “high resistance to proteolysis”. Besides, the IC50 in series [2] (72 h) amounted to 0.25 ± 0.03 µM.

Regarding “Ac-TVDKIASA[CSVLAEEC]PQN-CONH2 CH2(CH2)4CH2 (TVDKIASACSVLAEECPQN; N-acetyl, C-amide, hexylene bisthioether staple; Synthetic bisthioether stapled peptide; compound 4; THIOETH (9)..(16) (CH2)6 linker between residues 9 and 16) [4 | SEQ ID NO: 6]”, the IC50 in series [3] was 10.1 ± 1.1 µM.

Take `CC[C@H](C)[C@@H]1NC(=O)[C@@H](NC(=O)[C@H](CC(=O)O)NC(=O)[C@@H](NC(=O)[C@@H](NC(C)=O)[C@@H](C)O)C(C)C)CSCCCSC[C@@H](C(=O)N[C@@H](CC(C)C)C(=O)N[C@@H](CO)C(=O)N[C@H](C(=O)N[C@@H](CC(C)C)C(=O)N[C@@H](C)C(=O)N[C@@H](CCC(=O)O)C(=O)N[C@@H](CCC(=O)O)C(=O)N[C@H](C(=O)N2CCC[C@H]2C(=O)N[C@@H](CCC(N)=O)C(=O)N[C@@H](CC(N)=O)C(N)=O)C(C)C)C(C)C)NC(=O)[C@H](CO)NC(=O)[C@H](C)NC1=O` [2 Plasma] (Ac-TVDCIASCLSVLAEEVPQN-NH2; linker 4-8 via X1): the “Half Life” value in series [4] stood at 20.6 h.

Regarding `CC[C@H](C)n1cc(C)c2c(C(=O)NCc3c(C)cc(C)[nH]c3=O)cc(-c3ccc(N4CCNCC4)nc3)cc21` [GSK126], the IC50 in series [2] (Caki-1 cells, 72h daily treatment, colorimetric method, read-out: IC50 cell proliferation) was 0.15 ± 0.06 µM. Also, in series [2] (Caki-1 cells, 72h of daily treatment), the “effect on cell proliferation” value is given as “significantly inhibits cell proliferation”.

Take `CC[C@H](C)[C@H](NC(=O)[C@H](CC(C)C)NC(=O)[C@H](Cc1ccccc1)NC(=O)[C@H](CC(=O)O)NC(=O)[C@H](Cc1c[nH]cn1)NC(=O)[C@H](CCSC)NC(=O)[C@H](CO)NC(=O)[C@@H](NC(=O)[C@@H]1CSCCCSC[C@H](NC(=O)[C@H](CC(N)=O)NC(=O)[C@H](CCCNC(=N)N)NC(=O)[C@H](CS)NC(=O)[C@H](CC(C)C)NC(C)=O)C(=O)N[C@@H](CCSC)C(=O)N[C@@H](CC(C)C)C(=O)N[C@@H](Cc2c[nH]cn2)C(=O)N1)C(C)C)C(N)=O` [11 (GN-ZW11), LCRN[CMLHC](CH2)3VSMHDFLI] (Ac-LCRNCMLHCVSMHDFLI-NH2; linker 5-9 via X1): in series [5], the “Proteolytic Stability (Chymotripsin, t1/2)” value is recorded as 14.4 h and the “Proteolytic Stability (Plasma, t1/2)” value is 7.3 h. For the same compound, the “H3K27Me3 Inhibition (% at 1 mM)” value in series [6] worked out at 98.3 % at 1 mM. In series [7], this compound came in with a helicity of 95.1%.

As for `CC[C@H](C)[C@@H]1NC(=O)[C@@H](NC(=O)[C@H](CC(=O)O)NC(=O)[C@@H](NC(=O)[C@@H](NC(C)=O)[C@@H](C)O)C(C)C)CSCCCSC[C@@H](C(=O)N[C@@H](CC(C)C)C(=O)N[C@@H](CO)C(=O)N[C@H](C(=O)N[C@@H](CC(C)C)C(=O)N[C@@H](C)C(=O)N[C@@H](CCC(=O)O)C(=O)N[C@@H](CCC(=O)O)C(=O)N[C@H](C(=O)N2CCC[C@H]2C(=O)N[C@@H](CCC(N)=O)C(=O)N[C@@H](CC(N)=O)C(N)=O)C(C)C)C(C)C)NC(=O)[C@H](CO)NC(=O)[C@H](C)NC1=O` [2 Chymotrypsin] (Ac-TVDCIASCLSVLAEEVPQN-NH2; linker 4-8 via X1), the “Half Life” value in series [4] worked out at 40.9 h.

Take “Ac-VINEEYKIWKKNTPFL-NH2 [compound 13, reference compound]”: in series [7], the helicity is 16.4%. The “time to full degradation by chymotrypsin” value in series [8] was “half an hour”. Besides, in series [8] (bovine, read-out: t1/2 chymotrypsin stability assay (converted)), the half-life is 0.5 h.

On to “Ac-TVDKIASA[CSVLAEEC]PQN-CONH2 CH2(CH2)5CH2 (TVDKIASACSVLAEECPQN; N-acetyl, C-amide, heptylene bisthioether staple; Synthetic bisthioether stapled peptide; Compound 5; THIOETH (9)..(16) (CH2)7 linker between residues 9 and 16) [5 | SEQ ID NO: 7]”, for which, in series [3], the IC50 was found to be 27.1 ± 1.2 µM.

In the case of `CC[C@H](C)[C@@H]1NC(=O)[C@@H](NC(=O)[C@H](CC(=O)O)NC(=O)[C@@H](NC(=O)[C@@H](NC(C)=O)[C@@H](C)O)C(C)C)CSCCCCCSC[C@@H](C(=O)N[C@@H](CC(C)C)C(=O)N[C@@H](CO)C(=O)N[C@H](C(=O)N[C@@H](CC(C)C)C(=O)N[C@@H](C)C(=O)N[C@@H](CCC(=O)O)C(=O)N[C@@H](CCC(=O)O)C(=O)N[C@H](C(=O)N2CCC[C@H]2C(=O)N[C@@H](CCC(N)=O)C(=O)N[C@@H](CC(N)=O)C(N)=O)C(C)C)C(C)C)NC(=O)[C@H](CO)NC(=O)[C@H](C)NC1=O` (Ac-TVDCIASCLSVLAEEVPQN-NH2; linker 4-8 via X2), the helicity in series [7] worked out at 9%.

For “Ac-TVDKIASA[CSVLAEEC]PQN-CONH2 CH2(CH2)6CH2 (TVDKIASACSVLAEECPQN; N-acetyl, C-amide, octylene bisthioether staple; Synthetic bisthioether stapled peptide; Compound 6; THIOETH (9)..(16) (CH2)8 linker between residues 9 and 16) [6 | SEQ ID NO: 8]”, in series [3], the IC50 came out at 17 ± 1.4 µM.

For the compound `CC[C@H](C)[C@@H]1NC(=O)[C@@H](NC(=O)[C@H](Cc2ccc(O)cc2)NC(=O)[C@H](CCC(=O)O)NC(=O)[C@H](CCC(=O)O)NC(=O)[C@H](CC(N)=O)NC(=O)[C@@H](NC(=O)[C@@H](NC(C)=O)C(C)C)[C@@H](C)CC)CSCCCSC[C@@H](C(=O)N[C@@H](CC(N)=O)C(=O)N[C@H](C(=O)N2CCC[C@H]2C(=O)N[C@@H](Cc2ccccc2)C(=O)N[C@@H](CC(C)C)C(N)=O)[C@@H](C)O)NC(=O)[C@H](CCCCN)NC(=O)[C@H](Cc2c[nH]c3ccccc23)NC1=O` (Ac-VINEEYCIWKCNTPFL-NH2; linker 7-11 via X1), the helicity in series [7] came to 18.4%.
